{"source": "patent US12576163B2", "about": "“Fluorescent contrast agent with targeting function, and preparation method and use thereof” (priority 2022, dated 2026)", "key": {"[1]": {"experiment": "UV-VIS and fluorescence spectroscopy", "type": "physicochemical", "details": "UV-VIS spectrum", "experimental": "A size of the contrast agent was detected with the Zetasizer nano-ZS. 10 μL of each of MR780 NPs, FITC-MR780 NPs, and FITC-DSPC NPs was taken and added dropwise on a mesh, air-dried, stained with phosphotungstic acid (10 μL, 3.0%), then washed with deionized water, and air-dried. Morphological images of the mannose contrast agents were acquired through high-resolution transmission electron microscopy (HRTEM). Since MR780 NPs need to emit reduced glutathione-responsive fluorescence in a tumor microenvironment, it must be ensured that MR780 NPs can stably restore the fluorescence signal after reacting with reduced glutathione. 10 μL of MR780 NPs was thoroughly mixed with 10 mM reduced glutathione, and a resulting mixture was shaken at room temperature in the dark; and the fluorescence restoration of MR780 NPs in each group was tested at 10 min, 1 h, 2 h, and 4 h. The UV-VIS spectroscopy and fluorescence spectroscopy were conducted respectively on a UV-VIS spectrophotometer and a fluorescence spectrophotometer."}, "[2]": {"test_system": "induced RAW264.7 cells (CD206)", "details": "pre-blocking 2 h at 10-100 mg/mL, then FITC-MR780 NPs 40 μg/mL 2 h; FCM", "quoted_text": "After 2 h of co-incubation, the DMEM was changed, FITC-MR780 NPs 40 μg/mL was added in each group, and then co-incubation was conducted for 2 h. A fluorescence signal of FITC in cells of each group was determined by FCM.\n2 h before the blocking experiment, free mannose was added in advance at different concentrations, then FITC-MR780 NPs were added, and then co-incubation was conducted for 2 h. An intracellular fluorescence intensity of FITC was determined by FCM."}, "[3]": {"test_system": "CD206 on a surface of RAW264.7 cells", "experiment": "Induction of macrophage differentiation, CD206 expression by FCM", "type": "cell-based, mouse", "details": "24 h with inducer (IL-4 20 ng/mL; LPS 100 ng/mL)", "experimental": "RAW264.7 cells at a logarithmic growth phase were plated in a 6-well plate at a density of 1×10^5 cells/mL, then a DMEM was added at 2 mL/well, the plate was incubated overnight, and then interleukin-4 (IL-4) was added to the culture at a final concentration of 20 ng/mL. The IL-4 was an M2 macrophage inducer. In a control group, an M1 macrophage inducer lipopolysaccharide (LPS) was added to the culture at a final concentration of 100 ng/mL and then incubated for 24 h.\nThe expression of CD206 on a surface of RAW264.7 cells before and after induction was determined by FCM. Cells were digested and centrifuged, 0.5 μg of mouse CD16/32 monoclonal antibody (mAb) was added, and a resulting mixture was incubated at room temperature for 10 min. Then 0.5 mL of a 1× fixation buffer was added, a resulting mixture was incubated in the dark for 20 min and then centrifuged at 350 g for 5 min, and a resulting supernatant was discarded. 2 mL of a membrane disruption solution was added, and a resulting suspension was centrifuged at 350 g for 5 min; and the operation was repeated once. […] 200 μL of PBS was added to resuspend the cells, and the expression of CD206 on a cell surface in each of the two groups was detected by FCM."}}}
{"molecule": "CCCN1/C(=C/C=C2\\CCCC(/C=C/C3=[N+](CCC)c4ccccc4C3(C)C)=C2Cl)C(C)(C)c2ccccc21.[I-]", "note": "[IR780]", "values": [{"measurement": "UV-VIS maximum absorbance / maximum absorption peak", "setting": "[1]", "value": 780, "unit": "nm"}]}
{"molecule": "Nc1ccc(O[C@H]2O[C@H](CO)[C@@H](O)[C@H](O)[C@@H]2O)cc1", "note": "[free mannose, 4-aminophenyl-α-D-mannopyranoside]", "values": [{"measurement": "phagocytosis of cells for FITC-MR780 NPs after pre-blocking", "setting": "[2]", "value": "decreases significantly"}]}
{"molecule": "IL-4: interleukin-4, M2 macrophage inducer (protein, UniProt P05112 25-153, looked up) Interleukin-4: HKCDITLQEIIKTLNSLTEQKTLCTELTVTDIFAASKNTTEKETFCRAATVLRQFYSHHEKDTRCLGATAQQFHRHKQLIRFLKRLDRNLWGLAGLNSCPVKEANQSTLENFLERLKTIMREKYSKCSS", "values": [{"measurement": "expression of CD206", "setting": "[3]", "value": "81.22±0.64", "unit": "%"}]}
